Test results as given in paper PMC3961306, “Comparison of the Cancer Gene Targeting and Biochemical Selectivities of All Targeted Kinase Inhibitors Approved for Clinical Use” (PLoS ONE, 2014).

Columns and labels:
Test in all cases: Kinase profiling in a biochemical assay panel (mobility shift assays and ELISA), %-inhibition at 1 μM; selectivity entropy
[1] = target: panel of more than 300 wild-type and mutant kinases (313 kinase panel) (Homo sapiens, UniProt Q02750); conditions: kinase MAP2K1; compound at 1 μM
[2] = target: panel of more than 300 wild-type and mutant kinases (313 kinase panel) (Homo sapiens, UniProt Q02779); conditions: kinase MLK2; 1 μM
Chain of panel of more than 300 wild-type and mutant kinases (313 kinase panel) (Homo sapiens, UniProt Q02779) (Q02779 whole entry, change not shown): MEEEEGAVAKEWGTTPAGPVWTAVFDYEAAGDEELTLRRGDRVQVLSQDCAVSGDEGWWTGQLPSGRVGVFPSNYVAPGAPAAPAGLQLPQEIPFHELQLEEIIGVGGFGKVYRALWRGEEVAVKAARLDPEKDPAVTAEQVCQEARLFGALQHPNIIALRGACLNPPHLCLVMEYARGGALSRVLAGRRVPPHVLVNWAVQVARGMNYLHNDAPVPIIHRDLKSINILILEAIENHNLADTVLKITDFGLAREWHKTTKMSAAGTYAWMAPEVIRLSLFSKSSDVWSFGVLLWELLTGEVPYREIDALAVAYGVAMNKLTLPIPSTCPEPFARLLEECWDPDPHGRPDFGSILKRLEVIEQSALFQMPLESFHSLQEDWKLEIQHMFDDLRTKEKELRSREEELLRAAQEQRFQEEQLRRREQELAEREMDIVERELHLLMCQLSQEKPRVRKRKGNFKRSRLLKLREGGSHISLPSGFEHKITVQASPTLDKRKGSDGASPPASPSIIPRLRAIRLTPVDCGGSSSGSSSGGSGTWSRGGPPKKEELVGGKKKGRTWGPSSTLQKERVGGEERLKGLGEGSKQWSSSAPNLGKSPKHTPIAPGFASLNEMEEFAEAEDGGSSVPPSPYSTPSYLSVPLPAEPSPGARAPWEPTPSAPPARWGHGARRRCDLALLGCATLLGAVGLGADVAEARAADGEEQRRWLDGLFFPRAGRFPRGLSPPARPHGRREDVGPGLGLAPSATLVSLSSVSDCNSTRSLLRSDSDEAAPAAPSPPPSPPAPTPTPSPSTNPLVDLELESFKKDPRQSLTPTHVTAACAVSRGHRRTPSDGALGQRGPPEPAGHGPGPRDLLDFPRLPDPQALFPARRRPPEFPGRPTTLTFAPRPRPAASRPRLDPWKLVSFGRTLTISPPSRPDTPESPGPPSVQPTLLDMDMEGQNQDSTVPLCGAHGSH

[3] = target: panel of more than 300 wild-type and mutant kinases (313 kinase panel) (Homo sapiens, UniProt P08069); conditions: kinase IGF1R; compound at 1 μM
[4] = target: panel of more than 300 wild-type and mutant kinases (313 kinase panel) (Homo sapiens, UniProt P51617); conditions: kinase IRAK1; compound at 1 μM
[5] = target: panel of more than 300 wild-type and mutant kinases (313 kinase panel) (Homo sapiens, UniProt P04626); conditions: kinase HER2; compound at 1 μM
Chain of panel of more than 300 wild-type and mutant kinases (313 kinase panel) (Homo sapiens, UniProt P04626) (P04626 23-1255, change not shown): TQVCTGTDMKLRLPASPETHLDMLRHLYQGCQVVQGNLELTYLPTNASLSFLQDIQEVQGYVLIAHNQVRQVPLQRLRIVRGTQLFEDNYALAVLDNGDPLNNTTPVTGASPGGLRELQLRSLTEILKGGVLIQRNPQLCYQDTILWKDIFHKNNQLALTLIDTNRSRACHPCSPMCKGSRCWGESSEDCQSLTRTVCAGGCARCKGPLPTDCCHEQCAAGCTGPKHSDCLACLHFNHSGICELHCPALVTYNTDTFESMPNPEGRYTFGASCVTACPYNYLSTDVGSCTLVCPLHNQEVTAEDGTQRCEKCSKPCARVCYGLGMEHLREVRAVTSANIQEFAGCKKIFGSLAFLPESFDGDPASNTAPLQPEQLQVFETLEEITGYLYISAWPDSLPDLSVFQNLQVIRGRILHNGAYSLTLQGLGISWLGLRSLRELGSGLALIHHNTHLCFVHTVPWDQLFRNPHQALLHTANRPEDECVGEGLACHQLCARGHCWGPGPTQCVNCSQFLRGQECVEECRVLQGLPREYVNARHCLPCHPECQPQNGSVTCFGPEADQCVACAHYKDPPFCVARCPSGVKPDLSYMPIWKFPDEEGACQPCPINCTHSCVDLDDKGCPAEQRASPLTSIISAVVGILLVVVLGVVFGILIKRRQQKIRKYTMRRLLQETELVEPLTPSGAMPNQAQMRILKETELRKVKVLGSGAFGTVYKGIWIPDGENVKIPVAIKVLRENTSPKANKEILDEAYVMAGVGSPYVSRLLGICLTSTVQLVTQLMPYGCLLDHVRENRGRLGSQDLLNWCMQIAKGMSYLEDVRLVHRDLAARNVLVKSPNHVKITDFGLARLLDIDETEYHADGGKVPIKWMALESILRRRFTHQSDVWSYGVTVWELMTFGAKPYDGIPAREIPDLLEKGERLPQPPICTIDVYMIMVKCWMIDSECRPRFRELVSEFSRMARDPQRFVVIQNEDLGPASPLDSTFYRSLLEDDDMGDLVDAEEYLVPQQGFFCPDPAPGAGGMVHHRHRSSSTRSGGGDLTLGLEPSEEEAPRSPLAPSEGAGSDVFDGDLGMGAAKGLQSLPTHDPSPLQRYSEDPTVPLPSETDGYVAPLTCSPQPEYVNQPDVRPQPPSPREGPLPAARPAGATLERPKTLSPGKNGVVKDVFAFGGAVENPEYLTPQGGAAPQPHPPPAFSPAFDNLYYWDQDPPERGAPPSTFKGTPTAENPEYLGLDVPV

[6] = target: panel of more than 300 wild-type and mutant kinases (313 kinase panel) (Homo sapiens, UniProt Q9Y6M4); conditions: kinase CK1γ3; 1 μM compound
Chain of panel of more than 300 wild-type and mutant kinases (313 kinase panel) (Homo sapiens, UniProt Q9Y6M4) (Q9Y6M4 whole entry, change not shown): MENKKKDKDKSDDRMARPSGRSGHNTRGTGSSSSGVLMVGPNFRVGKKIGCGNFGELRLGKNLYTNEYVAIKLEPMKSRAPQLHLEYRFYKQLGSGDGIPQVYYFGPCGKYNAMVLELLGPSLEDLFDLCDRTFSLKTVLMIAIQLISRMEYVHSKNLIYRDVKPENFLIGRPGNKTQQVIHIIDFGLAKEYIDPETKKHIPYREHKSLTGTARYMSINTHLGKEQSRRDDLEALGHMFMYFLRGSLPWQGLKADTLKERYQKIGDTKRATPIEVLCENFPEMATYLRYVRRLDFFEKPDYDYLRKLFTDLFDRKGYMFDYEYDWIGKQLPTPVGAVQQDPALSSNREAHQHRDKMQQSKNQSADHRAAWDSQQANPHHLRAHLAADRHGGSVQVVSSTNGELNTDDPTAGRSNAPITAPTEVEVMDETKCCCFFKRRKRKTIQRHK

[7] = target: T1, panel of more than 300 wild-type and mutant kinases (313 kinase panel) (Homo sapiens, UniProt Q13043); conditions: kinase MST1; 1 μM
T1 sequence (Q13043 1-487): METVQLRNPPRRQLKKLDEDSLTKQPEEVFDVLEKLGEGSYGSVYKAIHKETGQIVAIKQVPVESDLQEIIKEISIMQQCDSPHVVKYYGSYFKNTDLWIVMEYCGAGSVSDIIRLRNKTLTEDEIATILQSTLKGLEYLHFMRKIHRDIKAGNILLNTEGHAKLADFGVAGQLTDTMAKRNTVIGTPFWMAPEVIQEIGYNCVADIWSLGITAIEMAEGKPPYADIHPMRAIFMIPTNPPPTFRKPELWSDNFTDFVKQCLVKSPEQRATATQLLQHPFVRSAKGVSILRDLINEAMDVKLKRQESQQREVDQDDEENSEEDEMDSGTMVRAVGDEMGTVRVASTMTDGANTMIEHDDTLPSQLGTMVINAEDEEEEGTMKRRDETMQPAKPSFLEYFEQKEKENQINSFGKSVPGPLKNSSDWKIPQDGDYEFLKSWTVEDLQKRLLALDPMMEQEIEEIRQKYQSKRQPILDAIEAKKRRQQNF

[8] = target: panel of more than 300 wild-type and mutant kinases (313 kinase panel) (Homo sapiens, UniProt Q15119); conditions: kinase PDHK2; 1 μM
[9] = target: T2, panel of more than 300 wild-type and mutant kinases (313 kinase panel) (Homo sapiens, UniProt P29322); conditions: kinase EPHA8; compound at 1 μM
T2 sequence (P29322 28-1005): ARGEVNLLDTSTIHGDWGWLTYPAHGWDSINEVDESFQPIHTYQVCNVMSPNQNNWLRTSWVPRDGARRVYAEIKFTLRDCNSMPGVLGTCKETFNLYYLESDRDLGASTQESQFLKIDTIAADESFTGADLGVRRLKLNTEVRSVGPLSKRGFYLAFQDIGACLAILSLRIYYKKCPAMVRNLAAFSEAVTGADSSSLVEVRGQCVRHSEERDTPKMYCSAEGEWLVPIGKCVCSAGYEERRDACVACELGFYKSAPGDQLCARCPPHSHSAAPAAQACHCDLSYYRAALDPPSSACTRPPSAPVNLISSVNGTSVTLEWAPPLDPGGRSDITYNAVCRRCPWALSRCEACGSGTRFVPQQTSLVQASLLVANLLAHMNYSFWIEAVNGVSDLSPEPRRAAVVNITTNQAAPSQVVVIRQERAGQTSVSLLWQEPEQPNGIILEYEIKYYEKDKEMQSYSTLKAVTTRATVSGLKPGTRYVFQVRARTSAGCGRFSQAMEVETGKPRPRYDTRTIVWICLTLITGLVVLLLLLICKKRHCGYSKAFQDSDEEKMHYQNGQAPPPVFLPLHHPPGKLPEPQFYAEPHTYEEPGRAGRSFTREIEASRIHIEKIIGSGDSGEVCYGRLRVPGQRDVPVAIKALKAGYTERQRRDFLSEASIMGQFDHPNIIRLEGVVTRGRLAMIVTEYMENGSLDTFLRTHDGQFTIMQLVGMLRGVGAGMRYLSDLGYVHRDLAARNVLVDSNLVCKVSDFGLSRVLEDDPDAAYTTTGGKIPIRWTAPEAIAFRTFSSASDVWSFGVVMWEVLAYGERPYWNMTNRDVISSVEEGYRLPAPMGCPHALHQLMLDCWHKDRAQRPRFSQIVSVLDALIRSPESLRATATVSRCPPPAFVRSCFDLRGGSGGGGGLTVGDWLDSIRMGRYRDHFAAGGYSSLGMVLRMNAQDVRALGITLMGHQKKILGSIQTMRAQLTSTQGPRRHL

[10] = target: panel of more than 300 wild-type and mutant kinases (313 kinase panel) (Homo sapiens, UniProt Q02763); conditions: kinase TIE2; 1 μM
Chain of panel of more than 300 wild-type and mutant kinases (313 kinase panel) (Homo sapiens, UniProt Q02763) (Q02763 23-1124, change not shown): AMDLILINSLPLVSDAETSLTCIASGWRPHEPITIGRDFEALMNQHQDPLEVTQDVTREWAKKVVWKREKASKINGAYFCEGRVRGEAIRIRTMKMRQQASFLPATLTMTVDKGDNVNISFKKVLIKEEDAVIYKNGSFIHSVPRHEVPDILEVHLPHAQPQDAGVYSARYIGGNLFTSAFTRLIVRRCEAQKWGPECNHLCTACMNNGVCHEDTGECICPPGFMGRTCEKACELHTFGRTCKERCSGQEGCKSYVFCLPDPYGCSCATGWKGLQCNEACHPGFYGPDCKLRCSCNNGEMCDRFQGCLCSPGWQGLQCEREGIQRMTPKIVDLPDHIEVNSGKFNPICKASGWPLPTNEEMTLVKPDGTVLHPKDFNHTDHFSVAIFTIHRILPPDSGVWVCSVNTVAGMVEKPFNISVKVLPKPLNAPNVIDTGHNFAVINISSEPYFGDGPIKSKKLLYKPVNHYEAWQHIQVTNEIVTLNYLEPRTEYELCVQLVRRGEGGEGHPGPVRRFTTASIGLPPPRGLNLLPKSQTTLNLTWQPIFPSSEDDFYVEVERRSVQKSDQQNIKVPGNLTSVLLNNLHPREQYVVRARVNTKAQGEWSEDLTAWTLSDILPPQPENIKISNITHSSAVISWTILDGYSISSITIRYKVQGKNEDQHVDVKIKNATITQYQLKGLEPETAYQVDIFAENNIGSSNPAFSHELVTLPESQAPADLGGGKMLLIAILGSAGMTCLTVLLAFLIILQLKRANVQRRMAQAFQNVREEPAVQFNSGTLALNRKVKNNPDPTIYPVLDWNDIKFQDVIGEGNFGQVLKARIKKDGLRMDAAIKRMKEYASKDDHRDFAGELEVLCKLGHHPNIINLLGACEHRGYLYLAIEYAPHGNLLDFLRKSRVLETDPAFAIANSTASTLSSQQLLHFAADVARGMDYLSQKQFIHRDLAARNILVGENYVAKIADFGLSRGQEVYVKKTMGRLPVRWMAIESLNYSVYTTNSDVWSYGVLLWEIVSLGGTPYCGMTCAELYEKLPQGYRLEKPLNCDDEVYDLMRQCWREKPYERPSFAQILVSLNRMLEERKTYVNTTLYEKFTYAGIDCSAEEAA

| SMILES | %-inhibition of MAP2K1 [1] [%] | %-inhibition of MLK2 [2] [%] | %-inhibition of IGF1R [3] [%] | %-inhibition of IRAK1 [4] [%] | %-inhibition of HER2 [5] [%] | %-inhibition, CK1γ3 [6] [%] | %-inhibition of MST1 [7] [%] | %-inhibition of PDHK2 [8] [%] | %-inhibition of EPHA8 [9] [%] | %-inhibition of TIE2 [10] [%] |
| --- | --- | --- | --- | --- | --- | --- | --- | --- | --- | --- |
| CNC(=O)c1cc(Oc2ccc(NC(=O)Nc3ccc(Cl)c(C(F)(F)F)c3)c(F)c2)ccn1 [regorafenib] | -8.57 | 0.795 | -1.72 | 16 | 6.43 | -2.14 | -5.39 | 7 | 95 | 47 |
| N#CC[C@H](C1CCCC1)n1cc(-c2ncnc3[nH]ccc23)cn1 [ruxolitinib] | 11 | 22 | 1.31 | 50 | -3.75 | 4.6 | 12 | -4 | 0.379 | 3 |
| CO[C@H]1C[C@@H]2CC[C@@H](C)[C@@](O)(O2)C(=O)C(=O)N2CCCC[C@H]2C(=O)O[C@H]([C@H](C)C[C@@H]2CC[C@@H](OCCO)[C@H](OC)C2)CC(=O)[C@H](C)/C=C(\C)[C@@H](O)[C@@H](OC)C(=O)[C@H](C)C[C@H](C)/C=C/C=C/C=C/1C [everolimus] | 7.5 | 4 | -3.24 | 12 | -2.5 | -13 | -1.86 | 4 | -3.63 | -3.66 |
| CO[C@H]1C[C@@H]2CC[C@@H](C)[C@@](O)(O2)C(=O)C(=O)N2CCCC[C@H]2C(=O)O[C@H]([C@H](C)C[C@@H]2CC[C@@H](OC(=O)C(C)(CO)CO)[C@H](OC)C2)CC(=O)[C@H](C)/C=C(\C)[C@@H](O)[C@@H](OC)C(=O)[C@H](C)C[C@H](C)/C=C/C=C/C=C/1C [temsirolimus] | 0.452 | 9 | -4.62 | 13 | -0.179 | -1 | -2.42 | -2.2 | -6.55 | -8 |
